Test results published in patent US20010056086A1, “USE OF ANTI-OESTROGENS AS MALE CONTRACEPTIVES” (priority 1995, published 2001).

Tested on: normal adult male rats
Assay: 28-day treatment of normal adult male rats: organ weight and histology of the male reproductive tract, epididymal sperm properties
Format: in vivo
Conditions: 2.5 mg/kg subcutaneously, 28 days
Procedure: The above-described properties of antiestrogens were obtained in tests that were performed with the ICI-antiestrogen 7α-[9-(4,4,5,5,5-pentafluoropentylsulfinyl)-nonyl]-estra-1,3,5(10)-triene-3,17β-diol on normal adult male rats.
The test design and the results are described in the list below:
Observations regarding the organ weight of the male reproductive tract and sperm properties: […]

histology of the organs studied (seminal vesicles, prostate, testicles, epididymis) (vs vehicle control): No effects
weight of the organs studied (seminal vesicles, prostate, testicles, epididymis) (vs vehicle control): No effects
SMILES: C[C@]12CC[C@@H]3c4ccc(O)cc4C[C@@H](CCCCCCCCC[S+]([O-])CCCC(F)(F)C(F)(F)F)[C@H]3[C@@H]1CC[C@@H]2O (stereo partly drawn) [7α-[9-(4,4,5,5,5-pentafluoropentylsulfinyl)-nonyl]-estra-1,3,5(10)-triene-3,17β-diol]
acrosomal state of sperm (epididymal sperm): Induction of an early incipient acrosomal reaction
sperm motility (epididymal sperm): Inhibition of motility
